Assay results reported in patent US20240122932A1, “Methods of Treating B-Cell Malignancy Using Bcl-2 Inhibitor” (BeiGene Switzerland GmbH, priority 2021, published 2024).

System: MAVER-1 mantle cell lymphoma (MCL) subcutaneous xenograft
Assay: MAVER-1 MCL subcutaneous xenograft model
Format: in vivo, NCG mice
Protocol: MAVER-1 cells are of mantle cell lymphoma (MCL) origin and were obtained from American Type Culture Collection (ATCC CRL-3008, Manassas, VA, DC, USA). Cells were grown in RPM 1640 medium (Corning, Cat #10-040-CVR), supplemented with 10% (v/v) fetal bovine serum (Gibco, Cat #10099-141C), and 100 μg/mL of penicillin and streptomycin (Gibco, Cat #15140-122). MAVER-1 cells were maintained as suspension cell cultures at 37° C. in a 5% CO2 atmosphere. Five to six-week-old female NCG mice were purchased from Gempharmatech of Information Technology Center. All animals were maintained under specific pathogen free (SPF) “full barrier” condition with free access to food and water. Mice were group-housed under a 12 h light:dark cycle (lights on at 08:00 h), at a temperature of 21-26° C. and 44-61% humidity in IVC cages (Lingyunboji (Beijing) Technology Co., Ltd.). Mice were fed with complete granulated feed with Co60 radiosterilization (Beijing Ke Ao Xie Li Feed Co., Ltd.).
On the day of implantation, MAVER-1 cells were harvested and re-suspended with appropriate volume of ice cold DPBS and same volume of Matrigel (Corning, Cat #356237) to give a final concentration of 1.5×10^7 cells/mL. Re-suspended cells were placed on ice prior to inoculation. The right front flank region of each mouse was cleaned with 75% ethanol prior to cell inoculation. Each animal was injected subcutaneously with 3×10^6 cells in 200 μL of cell suspension in the right front flank via a 26-gauge needle. After implantation, primary tumor volume was measured in two dimensions using a caliper.
Animals were randomly assigned into 7 groups with 10 mice per group according to body weight and tumor volume (100 mm^3-200 mm^3). The groups consisted of vehicle group, 5, 15 mg/kg of venetoclax with QD dosing, 5, 15 mg/kg of Compound 1 with QD dosing, and 2.5, 7.5 mg/kg of Compound 1 with BID dosing. Treatments were administered by oral gavage (p.o.) in a volume of 10 mL/kg body weight. Body weight was assessed immediately before dosing and volume dosed was adjusted accordingly.
Individual body weight was recorded twice weekly, with mice being monitored daily for clinical signs of toxicity for the duration of the study. Mice were euthanized using carbon dioxide when their tumor volume reached 2,000 mm^3, the tumor was ulcerated, or body weight loss exceeded 20%.
Tumor volume was calculated using the formula: V=0.5×(a×b^2) where a and b are the long and short diameters of the tumor, respectively. Tumor growth inhibition (TGI) was calculated using the following formula: % TGI=100×[1−(treatedt−treatedt0)/(vehiclet−vehiclet0)] (treated t=treated tumor volume at time t, treated t0=treated tumor volume at time 0, vehicle t=vehicle tumor volume at time t and vehicle t0=vehicle tumor volume at time 0)

SMILES | Mean Tumor volume (Day 14) (mm^3 ± SEM) (2.5 mg/kg BID × 17 p.o.) [mm^3] | TGI (Day 14) (2.5 mg/kg BID × 17 p.o.) [%] | Mean Tumor volume (Day 14) (mm^3 ± SEM) (5 mg/kg QD × 17 p.o.) [mm^3] | TGI (Day 14) (5 mg/kg QD × 17 p.o.) [%] | Mean Tumor volume (Day 14) (mm^3 ± SEM) (7.5 mg/kg BID × 17 p.o.) [mm^3] | TGI (Day 14) (7.5 mg/kg BID × 17 p.o.) [%] | Mean Tumor volume (Day 14) (mm^3 ± SEM) (15 mg/kg QD × 17 p.o.) [mm^3] | TGI (Day 14) (15 mg/kg QD × 17 p.o.) [%] | tumor growth suppression (in words) (mouse, in vivo) | anti-tumor activity relative to venetoclax (same total daily doses of 5 and 15 mg/kg)
CC(C)c1ccccc1[C@@H]1CCCN1C1CC2(CCN(c3ccc(C(=O)NS(=O)(=O)c4ccc(NCC5CCC(C)(O)CC5)c([N+](=O)[O-])c4)c(Oc4cnc5[nH]ccc5c4)c3)CC2)C1 (stereo partly drawn) [Compound 1, 2-((1H-pyrrolo[2,3-b]pyridin-5-yl)oxy)-N-((4-((((1r,4r)-4-hydroxy-4-methylcyclohexyl)methyl)amino)-3-nitrophenyl)sulfonyl)-4-(2-((S)-2-(2-isopropylphenyl)pyrrolidin-1-yl)-7-azaspiro[3.5]nonan-7-yl)benzamide] | 511.5 ± 49.9 | 77 | 383.5 ± 29.6 | 86 | 136.2 ± 2.6 | 103 | 140.5 ± 5.3 | 103 | potently suppressed tumor growth in a dose-dependent manner | showed more anti-tumor activities relative to venetoclax
CC1(C)CCC(CN2CCN(c3ccc(C(=O)NS(=O)(=O)c4ccc(NCC5CCOCC5)c([N+](=O)[O-])c4)c(Oc4cnc5[nH]ccc5c4)c3)CC2)=C(c2ccc(Cl)cc2)C1 [Venetoclax, reference compound] |  |  | 1082.1 ± 109.4 | 38 |  |  | 315.4 ± 23.1 | 91 |  | 
